# Patent US20250122225A1, “MASP-2 INHIBITORS AND METHODS OF USE” (Omeros Corporation, priority 2023, published 2025)
# Counter-ions that a name gives are not always drawn.
# Assays:
# human α-thrombin = target: T1, human α-thrombin (Homo sapiens, UniProt P00734); experiment: Enzymatic assay for thrombin (fluorogenic peptide substrate Boc-VPR-AMC); type: biochemical
# T1 construct: enzyme (human α-thrombin (BioPharm® Lab.)) in assay buffer; purchased BioPharm® Lab
# Method in brief: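 Assay conditions kept the reaction linear in time, enzyme and substrate, so IC50 approximated Ki apart from tight- or slow-binding cases. Boc-VPR-AMC cleavage by human α-thrombin proceeded 20 min at room temperature in Hepes pH 7.4/NaCl/Tween 20 buffer, then was acid-quenched and read by fluorescence.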
# MASP-2 (CCP1-CCP2-SP) = target: T2, MASP-2 (CCP1-CCP2-SP) (Homo sapiens, UniProt O00187); experiment: Enzymatic assay for MASP-2 inhibitory activity (fluorogenic substrate); type: biochemical
# T2 construct: 15 μL of Enzyme MASP-2 (CCP1-CCP2-SP) in Assay Buffer
# Method in brief: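 Fluorescence was normalized between no-enzyme and DMSO-only controls to derive % activity, with IC50 taken as equivalent to Ki except for tight-binding inhibitors. Reactions ran 20 min at room temperature in HEPES pH 7.4/NaCl/Tween 20 buffer, using the C2-derived fluorogenic substrate, before acetic acid stop.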
# T2 sequence (O00187 445-686 limits assumed): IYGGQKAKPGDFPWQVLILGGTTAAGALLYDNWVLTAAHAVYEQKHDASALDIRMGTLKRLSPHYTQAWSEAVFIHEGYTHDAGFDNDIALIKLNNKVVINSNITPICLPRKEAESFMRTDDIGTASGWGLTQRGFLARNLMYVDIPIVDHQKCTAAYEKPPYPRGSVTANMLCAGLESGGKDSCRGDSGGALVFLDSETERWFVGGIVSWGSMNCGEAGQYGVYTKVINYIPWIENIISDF
# T2 sequence (O00187 287-444 partner limits assumed): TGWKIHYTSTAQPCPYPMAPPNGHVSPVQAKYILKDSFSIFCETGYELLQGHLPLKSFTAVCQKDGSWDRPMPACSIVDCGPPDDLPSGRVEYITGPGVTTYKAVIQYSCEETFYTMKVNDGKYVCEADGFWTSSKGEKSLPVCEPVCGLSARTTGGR
Compound,Ki (human α-thrombin),Ki (MASP-2 (CCP1-CCP2-SP))
"Cc1nc(N)ccc1CNC(=O)[C@@H]1CCc2cnc(NCc3cccc(C(C)(C)O)c3)c(=O)n21 [Compound 66, (S)-N-((6-amino-2-methylpyridin-3-yl)methyl)-3-((3-(2-hydroxypropan-2-yl)benzyl)amino)-4-oxo-4,6,7,8-tetrahydropyrrolo[1,2-a]pyrazine-6-carboxamide]",< 500 nM,< 500 nM
"CC(C)(O)c1cccc(CNc2ncc3n(c2=O)[C@H](C(=O)NCc2cc4cnccc4[nH]2)CC3)c1 [Compound 67, (S)-N-((1H-pyrrolo[3,2-c]pyridin-2-yl)methyl)-3-((3-(2-hydroxypropan-2-yl)benzyl)amino)-4-oxo-4,6,7,8-tetrahydropyrrolo[1,2-a]pyrazine-6-carboxamide]",500 to 2500 nM,< 500 nM
"Cc1cc2[nH]c(CNC(=O)[C@@H]3CCc4cnc(NCc5cccc(C(C)(C)O)c5)c(=O)n43)cc2cn1 [Compound 68, (S)-3-((3-(2-hydroxypropan-2-yl)benzyl)amino)-N-((6-methyl-1H-pyrrolo[3,2-c]pyridin-2-yl)methyl)-4-oxo-4,6,7,8-tetrahydropyrrolo[1,2-a]pyrazine-6-carboxamide]",> 25000 nM,< 500 nM
"Cc1cc(F)cc(CNc2ncc3n(c2=O)[C@H](C(=O)NCc2cc4cnccc4[nH]2)CC3)c1 [Compound 70, (S)-N-((1H-pyrrolo[3,2-c]pyridin-2-yl)methyl)-3-((3-fluoro-5-methylbenzyl)amino)-4-oxo-4,6,7,8-tetrahydropyrrolo[1,2-a]pyrazine-6-carboxamide]",500 to 2500 nM,< 500 nM
"Cc1cc(F)cc(CNc2ncc3n(c2=O)[C@H](C(=O)NCc2ccc(N)nc2)CC3)c1 [Compound 72, (S)-N-((6-aminopyridin-3-yl)methyl)-3-((3-fluoro-5-methylbenzyl)amino)-4-oxo-4,6,7,8-tetrahydropyrrolo[1,2-a]pyrazine-6-carboxamide]",< 500 nM,< 500 nM
"Cc1cccc([C@@H](C)Nc2ncc3n(c2=O)[C@H](C(=O)NCc2cc4cnccc4[nH]2)CC3)c1 [Compound 73, (S)-N-((1H-pyrrolo[3,2-c]pyridin-2-yl)methyl)-4-oxo-3-(((R)-1-(m-tolyl)ethyl)amino)-4,6,7,8-tetrahydropyrrolo[1,2-a]pyrazine-6-carboxamide]",10000 to 25000 nM,< 500 nM
"Cc1cccc([C@H](C)Nc2ncc3n(c2=O)[C@H](C(=O)NCc2cc4cnccc4[nH]2)CC3)c1 [Compound 74, (S)-N-((1H-pyrrolo[3,2-c]pyridin-2-yl)methyl)-4-oxo-3-(((S)-1-(m-tolyl)ethyl)amino)-4,6,7,8-tetrahydropyrrolo[1,2-a]pyrazine-6-carboxamide]",500 to 2500 nM,< 500 nM
"Cc1cc(C)cc([C@@H](CO)Nc2ncc3n(c2=O)[C@H](C(=O)NCc2ccc(N)nc2C)CC3)c1 [Compound 76, (S)-N-((6-amino-2-methylpyridin-3-yl)methyl)-3-(((S)-1-(3,5-dimethylphenyl)-2-hydroxyethyl)amino)-4-oxo-4,6,7,8-tetrahydropyrrolo[1,2-a]pyrazine-6-carboxamide]",< 500 nM,< 500 nM
"Cc1ccc(F)c(CNc2ncc3n(c2=O)[C@H](C(=O)NCc2ccc(N)nc2C)CC3)c1 [Compound 77, (S)-N-((6-amino-2-methylpyridin-3-yl)methyl)-3-((2-fluoro-5-methylbenzyl)amino)-4-oxo-4,6,7,8-tetrahydropyrrolo[1,2-a]pyrazine-6-carboxamide]",< 500 nM,< 500 nM
"Cc1ccc(F)c(CNc2ncc3n(c2=O)[C@H](C(=O)NCc2ccc(N)nc2)CC3)c1 [Compound 79, (S)-N-((6-aminopyridin-3-yl)methyl)-3-((2-fluoro-5-methylbenzyl)amino)-4-oxo-4,6,7,8-tetrahydropyrrolo[1,2-a]pyrazine-6-carboxamide]",< 500 nM,< 500 nM
"Cc1ccc(F)c(CNc2ncc3n(c2=O)[C@H](C(=O)NCc2cc4cnc(C)cc4[nH]2)CC3)c1 [Compound 80, (S)-3-((2-fluoro-5-methylbenzyl)amino)-N-((6-methyl-1H-pyrrolo[3,2-c]pyridin-2-yl)methyl)-4-oxo-4,6,7,8-tetrahydropyrrolo[1,2-a]pyrazine-6-carboxamide]",10000 to 25000 nM,< 500 nM
"Cc1ccccc1[C@@H](C)Nc1ncc2n(c1=O)[C@H](C(=O)NCc1cc3cnccc3[nH]1)CC2 [Compound 81, (S)-N-((1H-pyrrolo[3,2-c]pyridin-2-yl)methyl)-4-oxo-3-(((R)-1-(0-tolyl)ethyl)amino)-4,6,7,8-tetrahydropyrrolo[1,2-a]pyrazine-6-carboxamide]",< 500 nM,< 500 nM
"Cc1ccccc1[C@@H](C)Nc1ncc2n(c1=O)[C@H](C(=O)NCc1ccc(N)nc1C)CC2 [Compound 82, (S)-N-((6-amino-2-methylpyridin-3-yl)methyl)-4-oxo-3-(((R)-1-(o-tolyl)ethyl)amino)-4,6,7,8-tetrahydropyrrolo[1,2-a]pyrazine-6-carboxamide]",< 500 nM,< 500 nM
"Cc1ccccc1[C@H](C)Nc1ncc2n(c1=O)[C@H](C(=O)NCc1cc3cnccc3[nH]1)CC2 [Compound 83, (S)-N-((1H-pyrrolo[3,2-c]pyridin-2-yl)methyl)-4-oxo-3-(((S)-1-(o-tolyl)ethyl)amino)-4,6,7,8-tetrahydropyrrolo[1,2-a]pyrazine-6-carboxamide]",2500 to 10000 nM,< 500 nM
"O=C(NCc1cc2cnccc2[nH]1)[C@@H]1CCc2cnc(N3CC(c4ccccc4)C3)c(=O)n21 [Compound 84, (S)-N-((1H-pyrrolo[3,2-c]pyridin-2-yl)methyl)-4-oxo-3-(3-phenylazetidin-1-yl)-4,6,7,8-tetrahydropyrrolo[1,2-a]pyrazine-6-carboxamide]",10000 to 25000 nM,500 to 2500 nM

# More lines, now with the values ahead:
Ki (human α-thrombin),Ki (MASP-2 (CCP1-CCP2-SP)),Compound
> 25000 nM,500 to 2500 nM,"Cc1cc(C)cc(CNc2ncc3n(c2=O)[C@H](C(=O)NCc2ccncc2)CC3)c1 [Compound 86, (S)-3-((3,5-dimethylbenzyl)amino)-4-oxo-N-(pyridin-4-ylmethyl)-4,6,7,8-tetrahydropyrrolo[1,2-a]pyrazine-6-carboxamide]"
< 500 nM,< 500 nM,"Cc1cc(C)cc(CNc2ncc3n(c2=O)[C@H](C(=O)NCc2ccc(N)nc2)CC3)c1 [Compound 87, (S)-N-((6-aminopyridin-3-yl)methyl)-3-((3,5-dimethylbenzyl)amino)-4-oxo-4,6,7,8-tetrahydropyrrolo[1,2-a]pyrazine-6-carboxamide]"
> 25000 nM,2500 to 10000 nM,"Cc1cc(C)cc(CNc2nc(Cl)c3n(c2=O)[C@H](C(=O)NCc2cccnc2C)CC3)c1 [Compound 89, trifluoroacetate]"
2500 to 10000 nM,< 500 nM,"Cc1cccc([C@@H](C)Nc2ncc3n(c2=O)[C@H](C(=O)NCc2cc4c(s2)CNC4)CC3)c1 [Compound 90, (S)—N-((5,6-dihydro-4H-thieno[2,3-c]pyrrol-2-yl)methyl)-4-oxo-3-(((R)-1-(m-tolyl)ethyl)amino)-4,6,7,8-tetrahydropyrrolo[1,2-a]pyrazine-6-carboxamide]"
< 500 nM,< 500 nM,"COc1cc(C)cc(CNc2ncc3n(c2=O)[C@H](C(=O)NCc2cc4c(s2)CNC4)CC3)c1 [Compound 91, (S)-N-((5,6-dihydro-4H-thieno[2,3-c]pyrrol-2-yl)methyl)-3-((3-methoxy-5-methylbenzyl)amino)-4-oxo-4,6,7,8-tetrahydropyrrolo[1,2-a]pyrazine-6-carboxamide]"
< 500 nM,< 500 nM,"Cc1cc(C)cc([C@@H](CO)Nc2ncc3n(c2=O)[C@H](C(=O)NCc2cc4c(s2)CNC4)CC3)c1 [Compound 92, (S)-N-((5,6-dihydro-4H-thieno[2,3-c]pyrrol-2-yl)methyl)-3-(((S)-1-(3,5-dimethylphenyl)-2-hydroxyethyl)amino)-4-oxo-4,6,7,8-tetrahydropyrrolo[1,2-a]pyrazine-6-carboxamide]"
< 500 nM,< 500 nM,"Cc1ccccc1[C@@H](C)Nc1ncc2n(c1=O)[C@H](C(=O)NCc1cc3c(s1)CNC3)CC2 [Compound 93, (S)-N-((5,6-dihydro-4H-thieno[2,3-c]pyrrol-2-yl)methyl)-4-oxo-3-(((R)-1-(o-tolyl)ethyl)amino)-4,6,7,8-tetrahydropyrrolo[1,2-a]pyrazine-6-carboxamide]"
500 to 2500 nM,< 500 nM,"Cc1ccccc1[C@H](C)Nc1ncc2n(c1=O)[C@H](C(=O)NCc1cc3c(s1)CNC3)CC2 [Compound 94, (S)-N-((5,6-dihydro-4H-thieno[2,3-c]pyrrol-2-yl)methyl)-4-oxo-3-(((S)-1-(o-tolyl)ethyl)amino)-4,6,7,8-tetrahydropyrrolo[1,2-a]pyrazine-6-carboxamide]"
500 to 2500 nM,< 500 nM,"Cc1cccc([C@H](C)Nc2ncc3n(c2=O)[C@H](C(=O)NCc2cc4c(s2)CNC4)CC3)c1 [Compound 95, (S)-N-((5,6-dihydro-4H-thieno[2,3-c]pyrrol-2-yl)methyl)-4-oxo-3-(((S)-1-(m-tolyl)ethyl)amino)-4,6,7,8-tetrahydropyrrolo[1,2-a]pyrazine-6-carboxamide]"
< 500 nM,< 500 nM,"Cc1cc(C)cc(CNc2ncc3n(c2=O)[C@H](C(=O)NCc2cc4c(s2)CNC4)CC3)c1 [Compound 96, (S)-N-((5,6-dihydro-4H-thieno[2,3-c]pyrrol-2-yl)methyl)-3-((3,5-dimethylbenzyl)amino)-4-oxo-4,6,7,8-tetrahydropyrrolo[1,2-a]pyrazine-6-carboxamide]"
